± gives the expanded uncertainty stated by the source.
Experiment: xn = mol fraction of the nth substance listed
Conditions: 92 K, Liquid, Buoyancy - hydrostatic balance with magnetic suspension - one sinker

CC [ethane] + N#N
mass density (138.3 kPa, x1 = 0.967): 650.5 ± 1.2 kg/m3
mass density (1039.4 kPa, x1 = 0.952): 651.3 ± 0.9 kg/m3

N#N [nitrogen] + C
mass density (159.1 kPa, x2 = 0.884): 451 ± 0.7 kg/m3
